Measurements reported in patent US7148200B2, “Method for treating cancer” (Toyo Suisan Kaisha, Ltd., priority 1999, dated 2006).
Where a name gives a salt, the structure may show the parent alone.

Molecular target: T1, DNA polymerase α (Bos taurus, UniProt A0AAA9TD94)
T1 construct: from tissue; host or cells: bovine thymus
T1 sequence (A0AAA9TD94 1-1441): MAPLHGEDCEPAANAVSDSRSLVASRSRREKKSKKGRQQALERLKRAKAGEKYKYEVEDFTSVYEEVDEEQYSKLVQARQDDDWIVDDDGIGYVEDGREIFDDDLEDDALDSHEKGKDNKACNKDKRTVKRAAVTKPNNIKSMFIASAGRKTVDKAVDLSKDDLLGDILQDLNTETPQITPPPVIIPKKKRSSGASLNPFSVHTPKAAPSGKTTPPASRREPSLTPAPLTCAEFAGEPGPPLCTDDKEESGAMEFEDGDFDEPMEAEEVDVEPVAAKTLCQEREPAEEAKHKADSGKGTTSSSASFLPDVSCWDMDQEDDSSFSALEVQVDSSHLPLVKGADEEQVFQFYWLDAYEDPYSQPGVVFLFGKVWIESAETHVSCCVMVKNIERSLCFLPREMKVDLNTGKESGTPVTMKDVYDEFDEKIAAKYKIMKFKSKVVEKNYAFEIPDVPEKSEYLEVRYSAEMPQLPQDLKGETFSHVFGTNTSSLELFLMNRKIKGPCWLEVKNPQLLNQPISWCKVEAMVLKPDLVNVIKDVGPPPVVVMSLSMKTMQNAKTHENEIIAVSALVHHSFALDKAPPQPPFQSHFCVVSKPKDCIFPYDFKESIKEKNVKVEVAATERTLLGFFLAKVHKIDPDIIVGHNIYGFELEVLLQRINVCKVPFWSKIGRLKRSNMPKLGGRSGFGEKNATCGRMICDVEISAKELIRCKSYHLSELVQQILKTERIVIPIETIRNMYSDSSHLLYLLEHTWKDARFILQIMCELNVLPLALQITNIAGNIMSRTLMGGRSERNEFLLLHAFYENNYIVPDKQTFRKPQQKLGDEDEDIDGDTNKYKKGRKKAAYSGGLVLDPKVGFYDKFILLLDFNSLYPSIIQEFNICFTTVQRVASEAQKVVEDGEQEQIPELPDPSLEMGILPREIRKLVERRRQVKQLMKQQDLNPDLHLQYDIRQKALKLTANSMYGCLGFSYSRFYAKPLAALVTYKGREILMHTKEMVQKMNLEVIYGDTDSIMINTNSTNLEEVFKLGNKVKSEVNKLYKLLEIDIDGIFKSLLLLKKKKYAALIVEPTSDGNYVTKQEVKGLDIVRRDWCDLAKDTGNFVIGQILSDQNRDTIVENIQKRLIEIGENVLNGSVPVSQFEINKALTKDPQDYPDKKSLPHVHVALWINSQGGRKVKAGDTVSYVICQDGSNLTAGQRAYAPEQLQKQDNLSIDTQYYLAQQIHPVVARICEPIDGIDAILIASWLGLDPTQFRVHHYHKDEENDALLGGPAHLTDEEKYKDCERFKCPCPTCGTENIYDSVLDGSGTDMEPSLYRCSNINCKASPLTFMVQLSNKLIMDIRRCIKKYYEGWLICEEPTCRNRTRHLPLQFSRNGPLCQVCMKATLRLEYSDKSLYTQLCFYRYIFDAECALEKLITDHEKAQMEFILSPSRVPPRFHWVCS
Test: Assay 1: inhibitory effect against DNA polymerase α ([3H]-dTTP incorporation)
Assay type: biochemical
Conditions: DNA polymerase α from bovine thymus, 37° C., 60 minutes
Procedure: An assay on inhibitory effect against a DNA polymerase α was carried out in the following manner.
0.05 U of a DNA polymerase α purified and isolated from a bovine thymus by an immunoaffinity column was mixed with each of test compounds, sulfopyranosylacylglycerol (hereinafter, simply referred to as “SQAG”) derivatives, namely, SQAG 1, SQAG 2 and SQAG 3 (listed in table 1) dissolved in DMSO. Each mixture was added with a buffer containing inorganic salts for the enzymatic reaction, [^3H]-labeled dTTP and compounds for reaction containing a template DNA strand, and incubated at 37° C. for 60 minutes.
After the enzymatic reaction was quenched, the resultant reaction product was fixed on a dedicated filter and subjected to measurement by a liquid scintillation counter. The amount of enzymatically incorporated dTTP was calculated as a radiation dose (cpm) of [^3H]. Note that, each of the sulfopyranosylacylglycerol derivatives is a mixture of the S- and R-configurations with respect to an absolute configuration of the carbon of the 2-position of the glycerol moiety.

| Compound | IC50 |
| --- | --- |
| CCCCCCCC/C=C\CCCCCCCC(=O)OCC(O)CO[C@H]1O[C@H](CS(=O)(=O)O)[C@@H](O)[C@H](O)[C@H]1O (stereo partly drawn) [SQAG3, 3-O-(6-deoxy-6-sulfo-α-D-glucopyranosyl)-1-O-oleoyl-glycerol Sodium Salt] | 3.31 µM |
| CCCC/C=C\CCCCCCCC(=O)OCC(O)CO[C@H]1O[C@H](CS(=O)(=O)O)[C@@H](O)[C@H](O)[C@H]1O (mixture of isomers) [SQAG1, 3-O-(6-deoxy-6-sulfo-α-D-glucopyranosyl)-1-o-myristoleoly-glycerol sodium salt] | 17.1 µM |
| CCCCCC/C=C\CCCCCCCC(=O)OCC(O)CO[C@H]1O[C@H](CS(=O)(=O)O)[C@@H](O)[C@H](O)[C@H]1O (stereo partly drawn) [SQAG2, 3-O-(6-deoxy-6-sulfo-α-D-glucopyranosyl)-1-O-palmitoleoyl-glycerol sodium salt] | 9.54 µM |
